Measured values from the NIST ThermoML archive (doi:10.1016/j.tca.2016.03.016).
Numbers after ± are expanded uncertainties.

Key:
[1] = Molar enthalpy of transition or fusion; conditions: DSC

Normal melting temperature (Crystal 1, DTA): 128.50 ± 1.1 °C
Triple point temperature (Crystal 2, DSC): 314.95 ± 1.2 K
Molar enthalpy of transition or fusion ([1]; Crystal 1): 0.951 ± 0.0526 kcal/mol
Molar enthalpy of transition or fusion ([1]; Crystal 2): 2.65 ± 0.124 kcal/mol
SMILES: CC(C)(CO)CO [2,2-dimethyl-1,3-propanediol]
